# Test results taken from patent US20070232609A1, “Novel Antiparasitic Combination of Active Compounds” (BAYER HEALTHCARE AG, priority 2004, published 2007).
# Tested on: Eimeria acervulina, E. maxima, E. tenella
# Experiment: Cage experiment on coccidiosis/chicks
# Type: in vivo
# Conditions: for Mortality %: day -3 to 8 (9) p.i.; for % efficacy (total score): 0% no action, 100% full action; for Dropping score / Lesion score: assessment 0 to 6
# Method: The efficacy of the compounds according to the invention can be confirmed, for example, in cage experiments with the following experimental arrangement, in which the animals are treated with the respective individual components and with the mixtures of the individual components.
# An active compound-containing feed is prepared such that the required amount of active compound is basically mixed with a nutritionally balanced animal feed, e.g. with the chick feed indicated below.
# Cage Experiment on Coccidiosis/Chicks
# 8- to 12-day-old male chicks (e.g. LSL Brinkschulte/Senden) which have been reared coccidia-free receive the compounds according to the invention (test substances) in the concentration indicated in ppm with the feed from 3 days before (day −3) infection (=a.i.) until 8 (9) days after infection (=p.i.). 3 animals are kept in each cage. One or more groups of this type are employed per dose. Infection is carried out by means of a stomach tube directly into the crop with approximately 100 000 sporulated oocysts of Eimeria acervulina and with approximately 30 000 oocysts each of E. maxima and 40 000 sporulated oocysts of E. tenella. These are highly virulent strains. The exact infection dose is adjusted so that, if possible, one of three experimentally infected untreated chicks dies due to the infection. For assessment of the efficacy, the following criteria are taken into account: weight increase from the start of the experiment to the end of the experiment, death rate due to infection, macroscopic assessment of the faeces with respect to diarrhea and excretion of blood on days 5 and 7 p.i. (assessment 0 to 6), macroscopic assessment of the intestinal mucosa, in particular of the appendices (assessment 0 to 6) and the oocyst excretion as well as the proportion (in %) of the oocysts sporulating in the course of 24 hours. The number of oocysts in the faeces was determined with the aid of a McMaster counting chamber (see Engelbrecht and coworkers “Parasitologische Arbeitsmethoden in Medizin und Veterinärmedizin” [Parasitological Working Methods in Medicine and Veterinary Medicine], Akademie-Verlag, Berlin (1965)). The individual findings are related to the untreated non-infected control groups and a total score is calculated (cf. A. Haberkorn (1986), pp. 263 to 270 in Research in Avian Coccidiosis ed. L. R. McDougald, L. P. Joyner, P. L. Long, Proceedings of the Georgia Coccidiosis Conference, Nov. 18-20, 1985, Athens/Georgia USA).
# In the column “ppm”, the concentration of the active compound employed in the feed is indicated in ppm.
# In the column “mortality”, the percentage of the dead animals is indicated under % and the number of dead animals/animals employed in the experiment is indicated under n.
# In the column “weight % of not inf. control”, the ratio of the weight of the treated animals to the weight of the non-infected control group is indicated.
# In the columns “dropping scores”, “lesion score” and “oocyst control”, individual details of the action are given.
# In the column “% efficacy”, the total score is assessed; 0% means no action, 100% means full action.
smiles,measurement,setting,value
N#CC(c1ccc(Cl)cc1)c1c(Cl)cc(-n2ncc(=O)[nH]c2=O)cc1Cl (stereo not shown) [Diclazuril],Mortality n (dead animals/animals employed),0.05 ppm in feed,0/3
same,Oocysts in % of inf. control,0.05 ppm in feed,17.0 % of inf. control
same,Weight in % of not inf. control,0.05 ppm in feed,86 % of not inf. control
same,Mortality %,0.05 ppm in feed,0%
same,% efficacy (total score),0.05 ppm in feed,69.3%
same,Dropping score,0.05 ppm in feed,0
same,Lesion score,0.05 ppm in feed,0
same,Mortality n (dead animals/animals employed),0.1 ppm in feed,0/3
same,Oocysts in % of inf. control,0.1 ppm in feed,14.0 % of inf. control
same,Weight in % of not inf. control,0.1 ppm in feed,92 % of not inf. control
same,Mortality %,0.1 ppm in feed,0%
same,% efficacy (total score),0.1 ppm in feed,77.0%
same,Dropping score,0.1 ppm in feed,0-2
same,Lesion score,0.1 ppm in feed,0
FC(F)(F)c1nc2c(Cl)cc3c(c2[nH]1)OC(F)(F)C(F)(F)O3 [(I-A)*],Mortality n (dead animals/animals employed),1 ppm in feed,0/3
same,Oocysts in % of inf. control,1 ppm in feed,36.0 % of inf. control
same,Weight in % of not inf. control,1 ppm in feed,16 % of not inf. control
same,Mortality %,1 ppm in feed,0%
same,% efficacy (total score),1 ppm in feed,15.7%
same,Dropping score,1 ppm in feed,6
same,Lesion score,1 ppm in feed,6
same,Mortality n (dead animals/animals employed),2.5 ppm in feed,0/3
same,Oocysts in % of inf. control,2.5 ppm in feed,80.7 % of inf. control
same,Weight in % of not inf. control,2.5 ppm in feed,41 % of not inf. control
same,Mortality %,2.5 ppm in feed,0%
same,% efficacy (total score),2.5 ppm in feed,12.3%
same,Dropping score,2.5 ppm in feed,6
same,Lesion score,2.5 ppm in feed,6
